These results are taken from paper PMC11076327, “CXCR2 antagonist navarixin in combination with pembrolizumab in select advanced solid tumors: a phase 2 randomized trial” (Investigational New Drugs, 2024).

One data set has as its system melanoma. Conditions: melanoma in vivo; ref [13], [14]; cited from earlier work.
The subject of data set [1] is triple-negative breast cancer cells. On the set-up: method as in PMID 30396947, PMID 29749433. Conditions: ref [15], [16]; cited from earlier work.
Another data set concerns CRC. Conditions: CRC in vivo; ref [13], [14]; cited from earlier work.
Data set [2] relates to metastatic castration-resistant prostate cancer (CRPC) preclinical models. Also on record: method as in PMID 31801883. Conditions: ref [6]; cited from earlier work.
Another data set deals with liver metastases. On the set-up: method as in PMID 21035946. Conditions: liver metastases in vivo; ref [17]; cited from earlier work.
In data set [3] the test system is absolute neutrophil count (ANC) and sputum neutrophil count. On the set-up: method as in PMID 25695403, PMID 22702508. Conditions: patients with chronic obstructive pulmonary disease and asthma; ref [10], [11]; cited from earlier work.
For data set [4], the system named is pancreatic ductal adenocarcinoma cells. On the set-up: method as in PMID 30396947, PMID 29749433. Conditions: ref [15], [16]; cited from earlier work.
A short description of data set [5]: Navarixin pharmacokinetics in combination with pembrolizumab. Conditions: for tlast: median (range); for AUC(0-inf) / AUC(0-t) / Cmax: human, plasma, oral, geometric mean (% geometric CV); for Geometric mean trough concentration: all tumor types combined. It is filed as in vivo, human. From the text:
Primary endpoints were objective response rate (ORR; proportion of patients with confirmed complete or partial response) by RECIST v1.1 as assessed by the investigator and safety based on the occurrence of dose-limiting toxicities (DLTs), adverse events (AEs), and treatment discontinuations because of AEs. Secondary endpoints included investigator-assessed ORR by immune-related RECIST (iRECIST), investigator-assessed progression-free survival (PFS; time from first dose of study drug until the first documented disease progression or death from any cause) by RECIST v1.1 and iRECIST, overall survival (OS; time from first dose of study drug until death from any cause), pharmacodynamics (assessed via changes in ANC), and PK of navarixin when administered in combination with pembrolizumab.
Blood samples for assessment of ANC were collected predose on day 1 of every cycle; between 6 and 12 hours after dosing on days 1, 3, and 8 of cycle 1; and between 6 and 12 hours after dosing on day 1 of cycle 2. Blood samples for assessment of navarixin pharmacokinetic parameters were collected predose and at 1, 2, 4, 6, and between 8 and 12 hours after dosing on day 1 of cycle 1; predose and between 6 and 12 hours after dosing on days 3 and 8 of cycle 1; predose and at 1, 2, 4, 6, and between 8 and 12 hours after dosing on day 1 of cycle 2; and predose during cycles 3 and 4. […]

The subject of data set [6] is metastatic triple-negative breast cancer. Also on record: method as in PMID 34476645. Conditions: in combination with paclitaxel; ref [35]; cited from earlier work.
Data set [7] has as its system mismatch repair–proficient CRC. On the set-up: method as in PMID 26028255. Conditions: 18 patients with mismatch repair–proficient CRC; ref [21]; cited from earlier work.
Data set [8] has as its system previously treated advanced NSCLC. On the set-up: method as in PMID 31154919. Conditions: pembrolizumab monotherapy; previously treated advanced NSCLC cohort; 103/449; ref [24]; cited from earlier work.
Data set [9] has as its system treatment-refractory metastatic CRPC. On the set-up: method as in PMID 31774688. Conditions: pembrolizumab monotherapy, 9/199, ref [22]; cited from earlier work.
Setting [10] is: CRPC, navarixin 30 mg + pembrolizumab 200 mg, Cycle 1 day 1, n=20.
Setting [11] is: CRPC, navarixin 30 mg + pembrolizumab 200 mg, Cycle 2 day 1 (steady state), n=18.
Where [12] appears, read: CRPC, navarixin 100 mg + pembrolizumab 200 mg, Cycle 1 day 1, n=20.
Where [13] appears, read: CRPC, navarixin 100 mg + pembrolizumab 200 mg, Cycle 2 day 1 (steady state), n=17.
Setting [14] is: MSS CRC, navarixin 30 mg + pembrolizumab 200 mg, Cycle 1 day 1, n=19.
[15] abbreviates: MSS CRC, navarixin 30 mg + pembrolizumab 200 mg, Cycle 2 day 1 (steady state), n=15.
[16] abbreviates: MSS CRC, navarixin 100 mg + pembrolizumab 200 mg, Cycle 1 day 1, n=21.
Setting [17] is: MSS CRC, navarixin 100 mg + pembrolizumab 200 mg, Cycle 2 day 1 (steady state), n=18.
The mark [18] stands for this setting: NSCLC, navarixin 30 mg + pembrolizumab 200 mg, Cycle 1 day 1, n=12.
Where [19] appears, read: NSCLC, navarixin 30 mg + pembrolizumab 200 mg, Cycle 2 day 1 (steady state), n=12.
Where [20] appears, read: NSCLC, navarixin 100 mg + pembrolizumab 200 mg, Cycle 1 day 1, n=13.
Where [21] appears, read: NSCLC, navarixin 100 mg + pembrolizumab 200 mg, Cycle 2 day 1 (steady state), n=11.

Usually AUC(0-inf) stands for total exposure, with the tail of the curve extrapolated. Usually AUC(0-t) stands for the area under the concentration-time curve up to a stated or last time point. Usually Cmax stands for the maximum level reached in the sampled fluid or tissue. Regarding `CC[C@@H](Nc1c(Nc2cccc(C(=O)N(C)C)c2O)c(=O)c1=O)c1ccc(C)o1` [Navarixin], the “Effect on tumor growth” value with melanoma and with CRC was “inhibited tumor growth” each time. In addition, the “Effect on colony formation” value in data set [1] and in data set [4] was “inhibited colony formation” each time. Also, in data set [2], the “Effect on neuroendocrine lineage plasticity and enzalutamide resistance” value is “reversed neuroendocrine lineage plasticity and enzalutamide resistance”. In the data set with liver metastases, the “Effect on apoptosis of malignant cells” value is listed as “induced apoptosis”. The “Effect on neutrophil counts” value in data set [3] is “reductions in absolute neutrophil count (ANC) as well as sputum neutrophil count”. Moreover, the tlast in data set [5] (setting [10]) is given as 8.00 (7.83–10.00) h; in data set [5] (setting [11]), 8.01 (6.50–8.70) h; in data set [5] (setting [12]) it was 8.00 (7.37–8.08) h; in data set [5] (setting [13]), 8.00 (5.93–8.17) h; in data set [5] (setting [14]), 8.0 (7.27–8.33) h; in [5] (setting [15]) it was 7.93 (6.00–8.17) h. For the same molecule, the tlast is given as 8.00 (7.12–10.02) h in data set [5] (setting [16]); 8.00 (7.87–8.13) h in [5] (setting [17]); 8.00 (7.83–8.25) h in [5] (setting [18]); 8.00 (7.80–8.08) h in data set [5] (setting [19]); 8.00 (6.00–8.07) h in [5] (setting [20]); 8.00 (6.03–8.08) h in data set [5] (setting [21]). For the same molecule, the “AUC0-∞, navarixin 100 mg versus navarixin 30 mg” value in [5] (across all tumor types) is on record as “approximately 2.5 fold”. The total exposure AUC(0-inf) in data set [5] (CRPC, navarixin 30 mg + pembrolizumab 200 mg, Cycle 1 day 1, n=19) was 376 ng·h/mL; in [5] (setting [11]), 534 ng·h/mL; in [5] (CRPC, navarixin 100 mg + pembrolizumab 200 mg, Cycle 1 day 1, n=18), 954 ng·h/mL; in data set [5] (CRPC, navarixin 100 mg + pembrolizumab 200 mg, Cycle 2 day 1 (steady state), n=11), 1340 ng·h/mL; in data set [5] (MSS CRC, navarixin 30 mg + pembrolizumab 200 mg, Cycle 1 day 1, n=17), 482 ng·h/mL; in data set [5] (MSS CRC, navarixin 30 mg + pembrolizumab 200 mg, Cycle 2 day 1 (steady state), n=10), 584 ng·h/mL. For the same molecule, the total exposure AUC(0-inf) in data set [5] (MSS CRC, navarixin 100 mg + pembrolizumab 200 mg, Cycle 1 day 1, n=16) is 1120 ng·h/mL; in [5] (MSS CRC, navarixin 100 mg + pembrolizumab 200 mg, Cycle 2 day 1 (steady state), n=9), 954 ng·h/mL; in [5] (NSCLC, navarixin 30 mg + pembrolizumab 200 mg, Cycle 1 day 1, n=10), 469 ng·h/mL; in [5] (NSCLC, navarixin 30 mg + pembrolizumab 200 mg, Cycle 2 day 1 (steady state), n=10), 450 ng·h/mL; in data set [5] (NSCLC, navarixin 100 mg + pembrolizumab 200 mg, Cycle 1 day 1, n=9), 1230 ng·h/mL; in data set [5] (NSCLC, navarixin 100 mg + pembrolizumab 200 mg, Cycle 2 day 1 (steady state), n=7), 1360 ng·h/mL. For the same molecule, the AUC(0-t) in data set [5] (setting [10]) turned out to be 363 ng·h/mL; in data set [5] (setting [11]), 457 ng·h/mL; in data set [5] (setting [12]) it was 853 ng·h/mL; in [5] (setting [13]) it was 925 ng·h/mL; in [5] (setting [14]) it was 464 ng·h/mL; in data set [5] (setting [15]), 443 ng·h/mL. Besides, the exposure AUC(0-t) was found to be 1070 ng·h/mL in [5] (setting [16]); 928 ng·h/mL in data set [5] (setting [17]); 427 ng·h/mL in data set [5] (setting [18]); 451 ng·h/mL in [5] (setting [19]); 1140 ng·h/mL in data set [5] (setting [20]); 1080 ng·h/mL in data set [5] (setting [21]). In addition, the Cmax turned out to be 191 ng/mL in data set [5] (setting [11]); 272 ng/mL in [5] (setting [13]); 162 ng/mL in data set [5] (setting [14]); 147 ng/mL in data set [5] (setting [15]); 354 ng/mL in data set [5] (setting [16]); 276 ng/mL in data set [5] (setting [17]). Moreover, the maximum concentration (Cmax) in data set [5] (setting [18]) worked out at 181 ng/mL; in [5] (setting [19]), 179 ng/mL; in [5] (setting [20]), 324 ng/mL; in data set [5] (setting [21]) it was 338 ng/mL; in data set [5] (male, CRPC, navarixin 30 mg + pembrolizumab 200 mg, Cycle 1 day 1, n=20), 156 ng/mL; in [5] (male, CRPC, navarixin 100 mg + pembrolizumab 200 mg, Cycle 1 day 1, n=20), 298 ng/mL. Further, the “Geometric mean trough concentration” value in data set [5] (navarixin 30 mg, steady state) is 7.71 ng/mL; in data set [5] (navarixin 100 mg, steady state), 14.5 ng/mL. Further, the “Steady-state exposure, 100-mg dose compared with 30-mg dose” value in [5] (steady state) is “approximately 2.5 fold”.
`CC(C)Cc1ccc([C@@H](C)C(=O)NS(C)(=O)=O)cc1` [reparixin]: in [6], the “Benefit of combination therapy compared with paclitaxel alone” value was “no benefit”.
As for pembrolizumab, the ORR in [7] is reported as 0%; in [8] it was 23%; in data set [9], 5%.
